Assays:
[1] = tested on: bacteria; assay: Antimicrobial activity in general (comparison with thymol / triclosan, effect of substitution); assay type: cell-based
[2] = tested on: S. sanguis; assay: Minimum Inhibitory Concentration (MIC), neat AA solutions in ethanol; assay type: cell-based; conditions: for MIC: neat solution in 98.5% ethanol
Text: (§1) The smaller the MIC, the greater the antibacterial activity of the AA being tested. This MIC test is also described in U.S. Pat. No. 5,275,805 at column 11, lines 54-68, which description is herewith incorporated herein.

[3] = tested on: S. mutans; assay: as above; assay type: cell-based; conditions: for MIC: neat solution in 98.5% ethanol
Text: as §1

[4] = tested on: A. viscosus; assay: as above; assay type: cell-based; conditions: for MIC: neat solution in 98.5% ethanol
Text: as §1

[5] = tested on: S. mutans; conditions: Evans 1977; cited from earlier work
[6] = tested on: A. viscosus; conditions: Evans 1977; cited from earlier work
[7] = tested on: A. naeslundii; conditions: Evans 1977; cited from earlier work
[8] = tested on: S. sanguis; conditions: Evans 1977; cited from earlier work
[9] = tested on: bacteria; conditions: background statement; cited from earlier work
[10] = tested on: A. viscosus, A. naeslundii, S. mutans and S. sanguis; conditions: Evans 1977; cited from earlier work
[11] = tested on: B. typhosus and Staph. aureus; conditions: v. B. typhosus and Staph. aureus; Suter 1941; cited from earlier work

Molecule	MIC [2] [ppm]	MIC [3] [ppm]	MIC [4] [ppm]	inhibition of in vitro growth or plaque formation [10]	phenol coefficient [11]	other results
CC(C)(C)c1ccc(O)c(C(C)(C)C)c1 [2,4-di-t-butylphenol]	1.95	0.98	1.95			activity relative to thymol ([1]; MIC test of Example 5, A. viscosus, S. sanguis, S. mutans): many times superior to thymol; activity relative to triclosan ([2]; MIC test of Example 5): somewhat less active than triclosan; activity relative to triclosan ([3]; MIC test of Example 5): significantly superior to triclosan; activity relative to triclosan ([4]; MIC test of Example 5): somewhat less active than triclosan
O=C(Nc1ccc(Br)cc1)c1cc(Br)cc(Br)c1O [3,5,4'-tribromo-salicylanilide]						effect on growth and plaque formation [5]: effective against growth and plaque formation; effect on growth and plaque formation [6]: effective against growth and plaque formation; effect on growth and plaque formation [7]: effective against growth and plaque formation; effect on growth and plaque formation [8]: effective against growth and plaque formation
O=C(C(=O)c1cc(Br)ccc1O)c1cc(Br)ccc1O [Dibromsalicil]						effect on growth and plaque formation [6]: effective against A. viscosus
Cc1ccc(C(C)C)c(O)c1 [Thymol, 2-isopropyl-5-methylphenol]	15.60	31.25	15.60	did not inhibit in vitro growth or plaque formation		antimicrobial activity relative to triclosan (background) [9]: only a small fraction of the activity of triclosan
Oc1cc(Cl)ccc1Oc1ccc(Cl)cc1Cl [Triclosan]	0.98	1.95	0.50			activity compared to thymol ([1]; AA's of the Tables, "10 to 100 or more times"): ~100 times
CCC(C)c1ccccc1O (centres unmarked) [o-sec-butyl phenol]					28	
CCC(C)c1ccc(O)cc1 (centres unmarked) [p-sec-butyl phenol]					28	
O=S(=O)([O-])c1ccc(O)cc1.O=S(=O)([O-])c1ccc(O)cc1.[Zn+2] [zinc phenolsulfonate]				did not inhibit in vitro growth or plaque formation		
phenylphenol				did not inhibit in vitro growth or plaque formation		
tert.butylphenol					about 20	

Reference: patent US6096293A, “Antiplaque oral composition and method” (priority 1999, dated 2000)
